In patent publication US8338420B1, “Treatment of Parkinson's disease and enhancement of dopamine signal using PDE 10 inhibitor” (Mitsubishi Tanabe Pharma Corporation, priority 2002, dated 2012) one finds IC50 data, which are given here for one compound.

The target in this experiment is T1, PDE8 (PDE8A) (Homo sapiens, UniProt O60658).
T1 construct: His tag (hexahistidine, pcDNA4/HisMax) (N); made in house
Nature of the experiment: PDE assay, recombinant human PDE8A. Type of experiment: biochemical. The conditions noted are these: substrate about 4.8 nM [3H]-cAMP and 0.1 μM cAMP. From the text: Based on the information of cDNA sequence of human PDE7A (Genbank/EMBL Accession No. NM002603), a cDNA encoding human PDE7A was cloned by PCR method, according to a method described in Sasaki et al. (Sasaki et al., Biochem. Biophys. Res. Commun., vol. 271, pp. 575-583, 2000). Further, based on the information of cDNA sequence of human PDE8A (Genbank/EMBL Accession No. AF388183), a cDNA encoding human PDE8A was cloned by PCR method, according to a method described in Gamanuma et al. (Gamanuma et al., Cell Signal, 2003, vol. 15, pp. 565-574). Further, a cDNA encoding human PDE11A was obtained, according to a method reported in Yuasa et al. (Yuasa et al., J. Biol. Chem., vol. 275, pp. 31469-31479, 2000). Using these cDNAs, recombinant proteins of human PDE7A, human PDE8A, and human PDE11A were prepared as follows.
DNA fragments comprising a cDNA encoding human PDE7A, human PDE8A or human PDE11A were linked to pcDNA4/HisMax (available from Invitrogen), to give a vector plasmid for expression of human proteins, with a histidine tag peptide (hexahistidine), added to the N-terminus. COS-7 cells were transfected with these vector plasmids, and the cells were cultured in Dulbecco's modified Eagle medium containing 10% bovine fetal serum for about 24 hours. […]

T1 sequence (O60658 whole entry): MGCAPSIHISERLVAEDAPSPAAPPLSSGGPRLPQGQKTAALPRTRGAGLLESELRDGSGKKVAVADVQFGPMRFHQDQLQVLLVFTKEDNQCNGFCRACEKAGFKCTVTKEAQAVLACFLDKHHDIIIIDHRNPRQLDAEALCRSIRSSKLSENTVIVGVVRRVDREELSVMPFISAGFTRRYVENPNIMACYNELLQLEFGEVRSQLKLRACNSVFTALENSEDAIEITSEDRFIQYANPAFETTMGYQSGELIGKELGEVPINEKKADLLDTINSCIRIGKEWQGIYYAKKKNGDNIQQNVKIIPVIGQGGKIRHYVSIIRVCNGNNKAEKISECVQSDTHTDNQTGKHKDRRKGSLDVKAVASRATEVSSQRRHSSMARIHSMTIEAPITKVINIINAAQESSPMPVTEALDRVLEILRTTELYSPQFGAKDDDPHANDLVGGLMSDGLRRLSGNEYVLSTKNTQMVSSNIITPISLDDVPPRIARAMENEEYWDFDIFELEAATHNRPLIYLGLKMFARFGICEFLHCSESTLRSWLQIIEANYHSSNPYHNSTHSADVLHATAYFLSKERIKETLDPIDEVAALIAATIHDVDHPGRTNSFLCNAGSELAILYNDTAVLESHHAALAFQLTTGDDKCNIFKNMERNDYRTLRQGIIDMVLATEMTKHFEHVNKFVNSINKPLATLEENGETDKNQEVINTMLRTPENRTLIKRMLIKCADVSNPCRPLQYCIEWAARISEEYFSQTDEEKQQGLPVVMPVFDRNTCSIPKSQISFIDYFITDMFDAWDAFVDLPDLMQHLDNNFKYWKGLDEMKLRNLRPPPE

Consider `COc1ccc(-c2cc(N3CCCC3)nc(/C=C/c3nc(-n4ccnc4)c4ccccc4n3)n2)cc1OC` [Compound A, 2-{(E)-2-[4-(1-imidazolyl)-quinazolin-2-yl]}ethenyl-4-(3,4-dimethoxy)phenyl-6-(pyrrolidin-1-yl)pyrimidine], for which the IC50 – broadly, the point on the concentration scale where inhibition reaches its midpoint – is more than 1000 nM.
